This passage reports IC50 and inhibition results from patent US20050272784A1 (priority 2004, published 2005).

Assay [1] has as its system SPI1 type III protein secretion system (SopE'-'Bla secretion). The assay can be described thus: Primary assay: Type III protein secretion of the chimeric SopE'-'Bla polypeptide by Salmonella enterica. The assay is classed as cell-based. The settings on record: read-out: SopE IC50. From the text: Primary assay: Type III protein secretion of the chimeric SopE′-'Bla polypeptide by Salmonella enterica. This procedure is a cell-based assay that measures the type III-dependent secretion by Salmonella enterica of a plasmid-encoded chimeric polypeptide whose synthesis can be regulated, and which is endowed with an enzymatic activity that can be monitored […] by hydrolysis of a substrate that is unable to penetrate into the bacterial cytoplasm within the time constraints of the reaction. Thus, the colorimetric reaction is not influenced by SopE′-'Bla polypeptide in the bacterial cytoplasm. Instead, it effectively measures the amount of polypeptide that has been secreted from the S. enterica cytoplasm to the extracellular medium via type III system protein secretion.
The SopE′-' Bla recombinant polypeptide consists of two functionally distinct domains spliced together. The N-terminus domain is encoded by a polynucleotide region specifying the signal for type III secretion of the SopE polypeptide of S. enterica, an effector of the SPI1 type III protein secretion system. The C-terminus domain of SopE′-'Bla consists of a 263 amino acid peptide sequence that corresponds to the TEM-1 β-lactamase expressed by plasmid pBR322 but without its N-terminal signal sequence. The TEM-1 β-lactamase part of the SopE′-'Bla chimeric polypeptide is used as a reporter enzyme. It is capable of hydrolyzing nitrocefin resulting in a product whose accumulation can be monitored by colorimetric detection. The secretion of the SopE′-'Bla chimeric polypeptide from the cytoplasm to the extracellular medium is dependent on type III protein secretion.
For this procedure, cells grown under conditions known to favor a functional SPI1 secretion system are induced for expression of the SopE′-'Bla protein and grown either in the presence or in the absence of putative inhibitors for determined time. Nitrocefin is then added to the various cultures and its hydrolysis are used for quantitation. An inhibitor of Type III protein secretion is generally a compound that reduces the signal of the enzymatic reaction by decreasing the amount of SopE′-'Bla secreted into the extracellular medium.

For assay [2], the system named is type III protein secretion system of P. aeruginosa PA103 (ExoU secretion). The assay can be described thus: Tertiary assay: Type III-dependent secretion of ExoU by P. aeruginosa PA103. The settings on record: Pseudomonas aeruginosa, ExoU Conc 100 μM, read-out: ExoU % Inh. The assay is classed as cell-based. From the text: Tertiary assay: inhibition of Type III protein secretion of effectors from a Pseudomonas aeruginosa system. Type III protein secretion is used by P. aeruginosa to secrete several essential virulence determinants. One effector of the type III protein secretion system of P. aeruginosa PA103 is the virulence determinants ExoU.
The amount of Type III-dependent secretion of ExoU by P. aeruginosa PA103 can be determined in a cell-based assay by quantification of the 73.9 kDa ExoU protein scereted into the extracellular medium. Such quantitation can be achieved by growing strain PA103 in a deferrated medium in the presence of nitrilotriacetic acid (an inducer of Type III protein secretion in P. aeruginosa) and either in the presence or absence of putative inhibitors. After a prolonged growth period, the cells are sedimented and the supernatants concentrated by ammonium sulfate precipitation. The proteins in the resuspended pellets are separated by electrophoresis on SDS-polyacrylamide gels. After staining gels with Colloidal Blue™, the 73.9 kDa ExoU band is quantitated by scanning through an imager. The effects of inhibitors on the intensity of the ExoU band may be measured relative to that of untreated controls.

`O=C(N[C@@H](C[S+]([O-])Cc1ccccc1)C(=O)O)c1nc(-c2ccc(C(F)(F)F)cc2)[nH]c1-c1ccc(-c2ccccc2)cc1` (stereo partly drawn) [Compound 12, (R)-2-{[5-Biphenyl-4-yl-2-(4-trifluoromethylphenyl)-1H-imidazole-4-carbonyl]amino}-3-phenylmethanesulfinylpropionic acid]: in assay [1], the IC50 is 14 µM. In addition, the inhibition at 100 µM in assay [2] turned out to be 84.3%.
In the case of `O=C(NC(Cc1ccc(Cl)cc1)C(=O)O)c1nc(-c2ccc(C(F)(F)F)cc2)oc1-c1cnc2ccccc2n1` (centres unmarked) [Compound 54, 3-(4-Chlorophenyl)-2-{[5-quinoxalin-2-yl-2-(4-trifluoromethylphenyl)oxazole-4-carbonyl]amino}propionic acid], the IC50 in assay [1] amounted to 49.4 µM.
The same measure, in the same setting: next, `O=C(N[C@@H](COCc1ccccc1)C(=O)O)c1nc(-c2ccc(C(F)(F)F)cc2)oc1C1CCN(c2nccc(C(F)(F)F)n2)CC1` [Compound 56]: 12 µM; `O=C(NC(Cc1ccc(Cl)cc1)C(=O)O)c1nc(-c2cccc3ccccc23)oc1-c1ccc(C(F)(F)F)nc1` (centres unmarked) [Compound 58, 3-(4-Chlorophenyl)-2-{[2-naphthalen-1-yl-5-(6-trifluoromethylpyridin-3-yl)oxazole-4-carbonyl]amino}propionic acid]: 4.2 µM; `O=C(NC(Cc1ccc(Cl)cc1)C(=O)O)c1cc(-c2ccc(-c3ccccc3)cc2)nn1-c1cccc(C(F)(F)F)c1` (centres unmarked) [Compound 74, 2-{[5-Biphenyl-4-yl-2-(3-trifluoromethylphenyl)-2H-pyrazole-3-carbonyl]amino}-3-(4-chlorophenyl)propionic acid]: 1.5 µM.
On the same count and under the same terms, for `O=C(NC(Cc1ccc(Cl)cc1)C(=O)O)c1cc(-c2ccc(-c3ccccc3)cc2)nn1-c1ccc(Cl)c(Cl)c1` (centres unmarked) [Compound 75, 2-{[5-Biphenyl-4-yl-2-(3,4-dichlorophenyl)-2H-pyrazole-3-carbonyl]amino}-3-(4-chlorophenyl)propionic acid] the value was 3 µM; for `O=C(NC(Cc1ccc(Cl)cc1)C(=O)O)c1cc(-c2ccc(-c3ccccc3)cc2)nn1-c1ccc(C(F)(F)F)cc1` (centres unmarked) [Compound 76, 2-{[5-Biphenyl-4-yl-2-(4-trifluoromethylphenyl)-2H-pyrazole-3-carbonyl]amino}-3-(4-chlorophenyl)propionic acid], 19.6 µM.

As usually defined, the IC50 is the concentration at which inhibition is half-maximal.
